Laboratory results reported in US5378692A, “Method of lowering lipids” (Senju Pharmaceutical Co., Ltd., priority 1992, dated 1995).

Legend:
[1] = tested on: rat alcoholic fatty liver; settings: male Wistar rats; for TG (liver triglyceride): 1000 mg/5 ml/kg p.o., 38% ethyl alcohol 10 ml/kg p.o. 1 hour later, liver excised 6 hours after alcohol, mean ± S.E., n = 8-9
Experimental: Male Wistar rats, 7 weeks old, were used in fasted state.
The experiment was performed in a control group, drug treatment groups and a normal group, each consisting of 8 to 9 animals.
The treatment groups were orally dosed with GSH and DCE-Et-GS-iPr, each dissolved in distilled water, at the dose level of 1000 mg/5 ml/kg. The control group received 5 ml/kg of distilled water p.o. The normal group was also provided.
One hour after administration of the test substance, 10 ml/kg of 38% ethyl alcohol was orally administered to the animals for induction of fatty liver. The liver was excised 6 hours after administration of ethyl alcohol and the triglyceride (TG) was determined by the acetylacetone method.

rat hypertriglyceridemia = test: Effect on rat hypertriglyceridemia (Intralipid-induced), serum triglyceride; format: in vivo; settings: male Wistar rats; for TG (serum triglyceride): 200 mg/2 ml/kg i.p., Intralipid 2 ml/kg i.v. 0.5 hour after dosing, blood 30 min after injection, mean ± S.E., n = 8-9; for triglyceride (TG) lowering effect (in words): 200 mg/kg i.p., versus control
Experimental: Intralipid (Otsuka Pharmaceutical Co., Ltd.) was used for induction of hypertriglyceridemia in rats.
The treatment groups were intraperitoneally dosed with glutathione (hereinafter referred to as GSH), S-(diethyl α, β-dicarboxyethyl)glutathione (hereinafter, DCE-Et-GS), S-(diethyl α, β-dicarboxyethyl)glutathione isopropyl ester (hereinafter, DCE-Et-GS-iPr) and S-(α, β-dicarbamoylethyl)glutathione (hereinafter, DCE-NH2 -GS), each dissolved in physiological saline. The dose was invariously 200 mg/2 ml/kg. The control group received 2 ml/kg of physiological saline i.p. The normal group was also provided.
Intralipid 2 ml/kg was injected into the tail vein 0.5 hour after administration of the test substance. Thirty minutes after the injection, the blood was collected and the serum triglyceride (TG) was determined.

[2] = tested on: rat streptozotocin diabetes; test: Effect on rat streptozotocin diabetes, blood lipids; format: in vivo; settings: STZ-diabetic male SD rats, 100 mg/2 ml/kg i.p. once a day, mean, n = 4-7; for Total Cholesterol Week 4: week 4, tail blood; for Total Cholesterol Week 8: week 8, tail blood; for Total Cholesterol Week 10: week 10, abdominal aorta blood
Experimental: Using male 4-week-old SD rats, streptozotocin (STZ), 70 mg/kg, was injected into the tail vein to construct a diabetes model. As test substances, DCE-GS, DCE-Et-GS and DCE-Et-GS-iPr, each dissolved in physiological saline, were respectively administered intraperitoneally in doses of 100 mg/2 ml/kg once a day. The control group received physiological saline, 2 ml/kg, i.p. The normal group was also provided.
At weeks 4 and 8 of treatment, the blood was collected from the tail and the total cholesterol was determined. Furthermore, at week 10, the blood was collected from the abdominal aorta for blood biochemical tests.

Compound | TG (liver triglyceride) [1] [mg/g liver] | triglyceride (TG) lowering effect (in words) ([1]; 1000 mg/kg p.o., versus control) | TG (serum triglyceride) (rat hypertriglyceridemia) [mg/dL] | triglyceride (TG) lowering effect (in words) (rat hypertriglyceridemia) | Total Cholesterol Week 4 [2] [mg/dL] | Total Cholesterol Week 8 [2] [mg/dL] | Total Cholesterol Week 10 [2] [mg/dL] | TG (blood triglycerides) ([2]; week 10) [mg/dL] | VLDL ([2]; week 10) [mg/dL] | β-lipoproteins ([2]; week 10) [mg/dL]
CCOC(=O)CC(SC[C@H](NC(=O)CC[C@H](N)C(=O)O)C(=O)NCC(=O)OC(C)C)C(=O)OCC (stereo partly drawn) [DCE-Et-GS-iPr, S-(diethyl α, β-dicarboxyethyl)glutathione isopropyl ester] | 10.7 ± 0.3 | significant triglyceride (TG) lowering effect | 66.1 ± 11 | Significant triglyceride (TG) lowering effects | 113.9 | 110.5 | 120 | 404 | 106 | 818
N[C@@H](CCC(=O)N[C@@H](CS)C(=O)NCC(=O)O)C(=O)O [GSH, glutathione, reference compound] | 13.0 ± 0.4 |  | 150.4 ± 12 |  |  |  |  |  |  | 
NC(=O)CC(SC[C@H](NC(=O)CC[C@H](N)C(=O)O)C(=O)NCC(=O)O)C(N)=O (stereo partly drawn) [DCE-NH2 -GS, S-(α, β-dicarbamoylethyl)glutathione] |  |  | 72.4 ± 6 | Significant triglyceride (TG) lowering effects |  |  |  |  |  | 
N[C@@H](CCC(=O)N[C@@H](CSC(CC(=O)O)C(=O)O)C(=O)NCC(=O)O)C(=O)O (stereo partly drawn) [DCE-GS, S-(α, β-dicarboxyethyl)glutathione] |  |  |  |  | 109.8 | 118.2 | 95 | 406 |  | 759
